# Source: patent publication US8173636B2, “Hydroxylthienoquinolones and related compounds as anti-infective agents” (Achillion Pharmaceuticals, Inc., priority 2009, dated 2012)
# Read-outs that look alike come from different tables or passages of the source.
# Legend:
# [1] = tested on: fluoroquinolone-resistant S. aureus ATCC 700699; assay: Minimum inhibitory concentration (MIC) assay, broth microdilution, MRSA; type: cell-based; details: Staphylococcus aureus
# Experimental: (§1) The antimicrobial activity of the compounds of the invention may be evaluated by a number of methods, including the following visual minimum inhibitory concentration (MIC) assay. This assay determines the minimum concentration of compound required to inhibit growth of a bacterial strain.
# (§2) Whole-cell antibacterial activity is determined by broth microdilution using conditions recommended by the NCCLS (see National Committee for Clinical Laboratory Standards. 2001. Performance standards for antimicrobial susceptibility testing: 11th informational supplement. Vol. 21, no. 1, M100-S11. National Committee for Clinical Laboratory Standards, Wayne, Pa.). Test compounds are dissolved in DMSO and diluted 1:50 in Mueller-Hinton II broth (Becton-Dickinson) to produce a 256 μg/ml stock solution. In a 96-well microtiter plate, the compound solution is serially two-fold diluted in Mueller-Hinton II broth. After the compounds are diluted, a 50 μl aliquot of the test organism (˜1×10^6 cfu/mL) is added to each well of the microtiter plate. The final test concentrations ranges from 0.125-128 μg/mL. Inoculated plates are incubated in ambient air at 37° C. for 18 to 24 hours. The organisms selected for testing included laboratory strains S. aureus ATCC 29213 and E. coli ATCC 25922 (strains purchased from American Type Culture Collection, Manassas, Va.) m, S. aureus FQR700699, and Paeruginosa 27853. The minimum inhibitory concentration (MIC) is determined as the lowest concentration of compound that inhibited visible growth of the test organism.
# [2] = tested on: Hep2; assay: Cell viability staining with Alamar Blue (compound cytotoxicity); type: cell-based, human; details: Table II, comparison of R2 acetyl vs cyano
# Experimental: To determine whether the microcidal effect observed against S. aureus and E. coli is specific to bacterial cells, compounds are screened for cell viability effects on several human cell types. Optimal cell density is first determined by plating cells in a 96-well plate standard sterile tissue culture plates in 100 μl media, 10% FBS at six cell densities from 500 cells/well to 15,000 cells/well. A cell free well containing only media is used as a control. Cells are incubated at 37° C. in a 5% CO2 incubator for 24 hours. 10% culture volume (10 ul) of Alamar Blue (Biosource, DAL1100, 100 mL) is then added. Cells are incubated at 37° C. in a 5% CO2 incubator and read in a Victor V plate reader, 544 nm excitation, 590 nm emission, at 3, 4, and 24 hours after the addition of Alamar Blue. The cell number vs. change in fluorescence is plotted to determine linearity of signal vs. cell number. The optimal density varies between 500-15,000 cells/well depending on the specific cell type. The optimal density is selected based on the highest number of cells that is still in the linear response range. Cells are plated at optimal cell density in a standard sterile tissue culture 96 well plate, and incubated at 37° C., O/N in a 5% CO2 incubator. 12 to 48 hours post-plating media is removed. The cells are washed 1 or 2 times with 1×PBS and replaced with fresh media containing the test compound in 1% DMSO. 24 to 72 hours after addition of compound, the media is removed, and the cells washed 1 to 2 times with 1×PBS. Fresh media containing 1/10 volume of Alamar Blue is then added. Plates are incubated 4 hours at 37° C. in a 5% CO2 incubator and read in a Victor V plate reader, 544 nm excitation, 590 nm emission. Compounds are diluted to 20 micromolar in 1% DMSO and media and screened in duplicate to obtain single concentration cytotoxicity data. Eight concentration points from 0.78 micromolar to 100 micromolar, run in duplicate, are used to determine cyclotoxicity CC50 values. Cells with 1% DMSO and media are used as a negative control, compounds having a known CC50 against a particular cell type are used as positive controls. The change in fluorescence vs. concentration of test compound is plotted to determine the cytotoxicity of the compound.
# [3] = tested on: S. aureus ATCC 29213; assay: Minimum inhibitory concentration (MIC) assay, broth microdilution, MSSA; type: cell-based; details: Staphylococcus aureus, Table I
# Experimental: as §1, §2
# [4] = Table II, comparison of R2 acetyl vs cyano, read-out: MRSA
# [5] = fluoroquinolone-resistant S. aureus ATCC 700699, Table I, read-out: MRSA MIC
Structure (SMILES),"MIC [1, 4]",Cytoxicity [2],MIC [3],"MIC [1, 5]"
"COc1c(N2CCNCC2)c(F)cc2c(=O)c3c(n(C4CC4)c12)SC(C#N)C3=O (stereo not shown) [Cmp 9, 9-cyclopropyl-6-fluoro-3-hydroxyl-8-methoxy-4-oxo-7-(piperazin-1-yl)-4,9-dihydrothieno[2,3-b]quinoline-2-carbonitrile]",0.75 µg/mL,9 µM,,
"COc1c(N2CCCC(CN)C2)c(F)cc2c(=O)c3c(O)c(C(C)=O)sc3n(C3CC3)c12 (stereo not shown) [Cmp 64, 2-acetyl-7-(3-(aminomethyl)piperidin-1-yl)-9-cyclopropyl-6-fluoro-3-hydroxyl-8-methoxythieno [2,3-b]quinolin-4(9H)-one]",0.25 µg/mL,19 µM,0.13 µg/mL,0.25 µg/mL
"COc1c(N2CC[C@@H](CN)C2)c(F)cc2c(=O)c3c(O)c(C(C)=O)sc3n(C3CC3)c12 [Cmp 60, (S)-2-acetyl-7-(3-(aminomethyl)pyrrolidin-1-yl)-9-cyclopropyl-6-fluoro-3-hydroxyl-8-methoxythieno [2,3-b]quinolin-4(9H)-one]",0.06 µg/mL,11 µM,0.06 µg/mL,0.06 µg/mL
"COc1c(N2CCCC(CN)C2)c(F)cc2c(=O)c3c(O)c(C#N)sc3n(C3CC3)c12 (stereo not shown) [Cmp 63, 7-(3-(aminomethyl)piperidin-1-yl)-9-cyclopropyl-6-fluoro-3-hydroxyl-8-methoxy-4-oxo-dihydrothieno[2,3-b] quinoline-2-carbonitrile]",0.13 µg/mL,0.4 µM,0.03 µg/mL,0.13 µg/mL
"COc1c(N2CC[C@@H](C(C)(C)N)C2)c(F)cc2c(=O)c3c(O)c(C(C)=O)sc3n(C3CC3)c12 [Cmp 58, (R)-2-acetyl-7-(3-(2-aminopropan-2-yl)pyrrolidin-1-yl)-9-cyclopropyl-6-fluoro-3-hydroxyl-8-methoxythieno [2,3-b]quinolin-4(9H)-one]",0.25 µg/mL,20 µM,0.13 µg/mL,0.25 µg/mL
"COc1c(N2CC[C@@H](C(C)(C)N)C2)c(F)cc2c(=O)c3c(n(C4CC4)c12)SC(C#N)C3=O (stereo partly drawn) [Cmp 10, (R)-7-(3-(2-aminopropan-2-yl)pyrrolidin-1-yl)-9-cyclopropyl-6-fluoro-3-hydroxyl-8-methoxy-4-oxo-4,9-dihydrothieno [2,3-b]quinoline-2-carbonitrile]",0.09 µg/mL,2 µM,,
"COc1c(N2CCN(C)CC2)c(F)cc2c(=O)c3c(O)c(C#N)sc3n(C3CC3)c12 [Cmp 26, 9-cyclopropyl-6-fluoro-3-hydroxyl-8-methoxy-7-(4-methylpiperazin-1-yl)-4-oxo-4,9-dihydrothieno[2,3-b] quinoline-2-carbonitrile]",,,0.13 µg/mL,1 µg/mL
"COC(=O)c1sc2c(c1O)c(=O)c1cc(F)c(N3CC[C@@H](C(C)(C)N)C3)c(OC)c1n2C1CC1 [Cmp 5, (R)-methyl 7-(3-(2-aminopropan-2-yl)pyrrolidin-1-yl)-9-cyclopropyl-6-fluoro-3-hydroxyl-8-methoxy-4-oxo-4,9-dihydrothieno [2,3-b]quinoline-2-carboxylate]",,,2 µg/mL,64 µg/mL
"C[C@H]1COc2c(N3CCNCC3)c(F)cc3c(=O)c4c(n1c23)SC(C#N)C4=O (stereo partly drawn) [Cmp 47, (1S)-5-fluoro-1-methyl-7,8-dioxo-4-(piperazin-1-yl)-2,7,8,9-tetrahydro-1H-[1,4]oxazino[2,3,4-ij]thieno[2,3-b] quinoline-9-carbonitrile]",,,1 µg/mL,4 µg/mL
"COC(=O)c1sc2c(c1O)c(=O)c1cc(F)c(N3CCNCC3)c(OC)c1n2C1CC1 [Cmp 7, methyl 9-cyclopropyl-6-fluoro-3-hydroxyl-8-methoxy-4-oxo-7-(piperazin-1-yl)-4,9-dihydrothieno[2,3-b] quinoline-2-carboxylate]",,,3 µg/mL,32 µg/mL
"COc1c(N2CCNCC2)c(F)cc2c(=O)c3c(O)c(C#N)sc3n(C3CC3)c12 [Cmp 9, 9-cyclopropyl-6-fluoro-3-hydroxyl-8-methoxy-4-oxo-7-(piperazin-1-yl)-4,9-dihydrothieno[2,3-b]quinoline-2-carbonitrile]",,,0.06 µg/mL,0.75 µg/mL
"COc1c(N2CCC[C@H](N)C2)c(F)cc2c(=O)c3c(O)c(C#N)sc3n(C3CC3)c12 [Cmp 54, (S)-7-(3-aminopiperidin-1-yl)-9-cyclopropyl-6-fluoro-3-hydroxyl-8-methoxy-4-oxo-4,9-dihydrothieno[2,3-b] quinoline-2-carbonitrile]",,,0.13 µg/mL,0.5 µg/mL
"COc1c(N2CC3CC2CN3)c(F)cc2c(=O)c3c(O)c(C#N)sc3n(C3CC3)c12 (stereo not shown) [Cmp 41, 7-(2,5-diazabicyclo[2.2.1]heptan-2-yl)-9-cyclopropyl-6-fluoro-3-hydroxyl-8-methoxy-4-oxo-4,9-dihydrothieno [2,3-b]quinoline-2-carbonitrile]",,,0.13 µg/mL,1 µg/mL
"COc1c(N2CC[C@@H](CN)C2)c(F)cc2c(=O)c3c(O)c(C#N)sc3n(C3CC3)c12 [Cmp 59, (S)-7-(3-(aminomethyl)pyrrolidin-1-yl)-9-cyclopropyl-6-fluoro-3-hydroxyl-8-methoxy-4-oxo-dihydrothieno[2,3-b] quinoline-2-carbonitrile]",0.03 µg/mL,0.06 µM,0.02 µg/mL,< 0.03 µg/mL
"COc1c(N2CCNCC2)c(F)cc2c(=O)c3c(O)c(C(C)=O)sc3n(C3CC3)c12 [Cmp 57, 2-acetyl-9-cyclopropyl-6-fluoro-3-hydroxyl-8-methoxy-7-(piperazin-1-yl)thieno[2,3-b]quinolin-4(9H)-one]",1 µg/mL,57 µM,0.25 µg/mL,1 µg/mL
"COc1c(N2CC[C@H](N)C2)c(F)cc2c(=O)c3c(O)c(C#N)sc3n(C3CC3)c12 [Cmp 22, (S)-7-(3-aminopyrrolidin-l-yl)-9-cyclopropyl-6-fluoro-3-hydroxyl-8-methoxy-4-oxo-4,9-dihydrothieno[2,3-b]quinoline-2-carbonitrile]",,,0.03 µg/mL,0.25 µg/mL
"N#CCN1CCN(c2c(F)cc3c(=O)c4c(O)c(C#N)sc4n(C4CC4)c3c2OC(F)F)CC1 [Cmp 18, 7-(4-(cyanomethyl)piperazin-1-yl)-9-cyclopropyl-8-(difluoromethoxy)-6-fluoro-3-hydroxyl-4-oxo-4,9-dihydrothieno [2,3-b]quinoline-2-carbonitrile]",,,0.13 µg/mL,4 µg/mL
